Test results as given in publication PMC8779134 (2022).
One block for each molecule: values may come before it. *1 amine or outer side, *2 acyl side, *3 side chain or, on linkers, in order; H or OH if unused. Where a SMILES comes first, the peptide text is derived from it. Bridges are numbered along the chain shown (N, C = ends). [ ]: non-standard residue; d: D form. ξ: configuration not given here. ξTrp(2-yl) = O=C(C(Cc1c([*:3])[nH]c2ccccc12)N[*:1])[*:2]; X2 = O=C(C(CC(O)(CO)CO)N[*:1])[*:2]; X1 = CC(O)(CO)CC(N[*:1])C(=O)[*:2]; ξAsp(3ξ-OH) = NC(C(=O)O)C(O)C(=O)O; Hyp = O=C(O)[CH]1C[CH](O)CN1

Experiments:
[1] = test system: Apt (DNA, aptamer) CATGCTTCCCCAGGGAGATGGAGGTCTTTTTGGTTGTTGGTGGGGGAATCTTTTGGTATTGAGGAACATG; assay: AuNP colorimetric assay (A620/A520); conditions: Na+ 40 mM (NaCl added after binding), room temperature, 400 nM aptamer
[2] = test system: biotin-labeled Apt (DNA, aptamer) CATGCTTCCCCAGGGAGATGGAGGTCTTTTTGGTTGTTGGTGGGGGAATCTTTTGGTATTGAGGAACATG; assay: magnetic bead ELISA, competition (A450); conditions: 37 °C, biotinylated complementary strand as competitor
[3] = test system: Apt-10 (DNA, aptamer) CCCCAGGGAGATGGAGGTCTTTTTGGTTGTTGGTGGGGGAATCTTTTGGTATTGAGGAA; assay: ITC; conditions: ultrapure water, 25 °C; 500 μM aptamer into 41.6 μM α-amanitin; printed ΔG positive
[4] = test system: Apt-11 (DNA, aptamer) CTTCCCCAGGGAGATGGAGGTCTTTTTGGTTGTTGGTGGGGGAAT; assay: AuNP colorimetric assay (A520); conditions: Na+ 40 mM (NaCl added after binding); room temperature; aptamer 0-1600 nM titrated into 1 μg/mL α-amanitin; apparent; table unit misprinted Nm
[5] = test system: Apt-10 (DNA, aptamer) CCCCAGGGAGATGGAGGTCTTTTTGGTTGTTGGTGGGGGAATCTTTTGGTATTGAGGAA; assay: AuNP colorimetric assay (A520); conditions: Na+ 40 mM (NaCl added after binding); room temperature; aptamer 0-1600 nM titrated into 1 μg/mL α-amanitin; apparent; table unit misprinted Nm
[6] = test system: Apt-2 (DNA, aptamer) CCAGGGAGATGGAGGTCTTTTTGGTTGTTGGTGGGGGAATCTTTTGGTATTGAGGAACATG; assay: AuNP colorimetric assay (A520); conditions: Na+ 40 mM (NaCl added after binding); room temperature; aptamer 0-1600 nM titrated into 1 μg/mL α-amanitin; apparent; table unit misprinted Nm
[7] = test system: Apt (DNA, aptamer) CATGCTTCCCCAGGGAGATGGAGGTCTTTTTGGTTGTTGGTGGGGGAATCTTTTGGTATTGAGGAACATG; assay: AuNP colorimetric assay (A520); conditions: Na+ 40 mM (NaCl added after binding); room temperature; aptamer 0-1600 nM titrated into 1 μg/mL α-amanitin; apparent; table unit misprinted Nm
[8] = test system: Apt-2 (DNA, aptamer) CCAGGGAGATGGAGGTCTTTTTGGTTGTTGGTGGGGGAATCTTTTGGTATTGAGGAACATG; assay: ITC; conditions: ultrapure water, 25 °C; 500 μM aptamer titrated into 41.6 μM α-amanitin
[9] = test system: Apt (DNA, aptamer) CATGCTTCCCCAGGGAGATGGAGGTCTTTTTGGTTGTTGGTGGGGGAATCTTTTGGTATTGAGGAACATG; assay: ITC; conditions: ultrapure water, 25 °C; 500 μM aptamer titrated into 41.6 μM α-amanitin
[10] = test system: Apt-12 (DNA, aptamer) GGGAGATGGAGGTCTT; assay: ITC; conditions: ultrapure water, 25 °C; 500 μM aptamer titrated into 41.6 μM α-amanitin
[11] = test system: Apt-11 (DNA, aptamer) CTTCCCCAGGGAGATGGAGGTCTTTTTGGTTGTTGGTGGGGGAAT; assay: ITC; conditions: ultrapure water, 25 °C; 500 μM aptamer into 41.6 μM α-amanitin; fit unphysical (N, ΔH)
[12] = test system: Apt-12 (DNA, aptamer) GGGAGATGGAGGTCTT; assay: AuNP colorimetric assay (A520); conditions: Na+ 40 mM (NaCl added after binding); room temperature; 1 μg/mL α-amanitin; apparent; text b16 prints 132.1 ± 32.99 nM instead
[13] = test system: Apt-8 (DNA, aptamer) CATGCTTCCCCAGGGAGATGGAGGTCTTTTTGGTTGTTGGTGGGGGAATCTTTTGGTA; assay: ITC; conditions: ultrapure water, 25 °C; 500 μM aptamer titrated into 41.6 μM α-amanitin
[14] = test system: Apt-8 (DNA, aptamer) CATGCTTCCCCAGGGAGATGGAGGTCTTTTTGGTTGTTGGTGGGGGAATCTTTTGGTA; assay: AuNP colorimetric assay (A520); conditions: Na+ 40 mM (NaCl added after binding); room temperature; aptamer 0-1600 nM titrated into 1 μg/mL α-amanitin; apparent; table unit misprinted Nm
[15] = highest concentration 500 ng/mL

SMILES: CCCC[C@@H](C)[C@@H](OC(=O)C[C@@H](CC(=O)O)C(=O)O)[C@H](C[C@@H](C)C[C@H](O)CCCC[C@@H](O)C[C@H](O)[C@H](C)N)OC(=O)C[C@@H](CC(=O)O)C(=O)O
binding ([1]; highest concentration 1 μg/mL): no

SMILES: CC[C@H](C)[C@@H]1NC(=O)CNC(=O)[C@@H]2Cc3c([nH]c4cc(O)ccc34)[S@](=O)C[C@H](NC(=O)CNC1=O)C(=O)N[C@@H](CC(N)=O)C(=O)N1C[C@H](O)C[C@H]1C(=O)N[C@@H]([C@@H](C)[C@H](C)O)C(=O)N2
binding [2, 15]: no

SMILES: CC[C@H](C)[C@@H]1NC(=O)CNC(=O)[C@@H]2Cc3c([nH]c4cc(O)ccc34)[S@](=O)C[C@H](NC(=O)CNC1=O)C(=O)N[C@@H](CC(N)=O)C(=O)N1C[C@H](O)C[C@H]1C(=O)N[C@@H]([C@@H](C)[C@@H](O)CO)C(=O)N2
Kd [3]: 68000 nM | Kd [4]: 184.4 ± 37.08 nM | Kd [5]: 108.7 ± 18.23 nM | Kd [6]: 37.9 ± 6.053 nM | Kd [7]: 33.6 ± 3.928 nM | Kd [8]: 46900 nM | binding ([2]; 0.1-6 μg/mL): yes | Kd [9]: 3100 nM | Kd [10]: 84700 nM | Kd [11]: 54600 nM | Kd [12]: 185.2 ± 60.87 nM | Kd [13]: 11900 nM | Kd [14]: 130.9 ± 31.1 nM

Continued, values first:

binding ([1]; 1 μg/mL β-amanitin): yes | binding ([2]; 500 ng/mL): yes
SMILES: CC[C@H](C)[C@@H]1NC(=O)CNC(=O)[C@@H]2Cc3c([nH]c4cc(O)ccc34)[S@](=O)C[C@H](NC(=O)CNC1=O)C(=O)N[C@@H](CC(=O)O)C(=O)N1C[C@H](O)C[C@H]1C(=O)N[C@@H]([C@@H](C)[C@@H](O)CO)C(=O)N2

binding [2, 15]: no
SMILES: CC1NC(=O)C2CC(O)CN2C(=O)C2CSc3[nH]c4ccccc4c3CC(NC1=O)C(=O)NC(CC(C)(O)CO)C(=O)NC(C(C)C)C(=O)NC(C(O)C(=O)O)C(=O)N2 (centres unmarked) (cyclo([ξAsp(3ξ-OH)]C[Hyp]A[ξTrp(2-yl)][X1]V); thioether 2-5; configuration not given here)

binding [2, 15]: no
SMILES: CC1NC(=O)C2CC(O)CN2C(=O)C2CSc3[nH]c4ccccc4c3CC(NC1=O)C(=O)NC(CC(O)(CO)CO)C(=O)NC(C(C)C)C(=O)NC(C(O)C(=O)O)C(=O)N2 (centres unmarked) (cyclo([ξAsp(3ξ-OH)]C[Hyp]A[ξTrp(2-yl)][X2]V); thioether 2-5; configuration not given here)

binding ([1]; highest concentration 1 μg/mL): no
SMILES: C[C@@H]1Cc2c(Cl)cc(C(=O)N[C@@H](Cc3ccccc3)C(=O)O)c(O)c2C(=O)O1
